Results: patent publication US6576671B1, “Aminotetralin derivatives for the therapy of cardiovascular diseases” (Chiese Farmaceutici S.p.A., priority 1999, dated 2003)

Assays:
[1] = system: rats with left ventricular dysfunction; assay: Rat model of left ventricular dysfunction after coronary artery occlusion, urine catecholamine excretion; type: in vivo
Protocol: Myocardial infarction (MI) was induced by left coronary artery ligation in 134 rats, and 6 were left unoperated. After two months, the survived animals with ECG evidence of MI entered a four-week treatment phase. They were randomly allocated to one of the following treatments: 1) delapril 6 mg.kg^−1.day^−1, (n=12), 2) delapril 6 mg.kg^−1.day^−1 and CHF 1024 0.33 mg.kg^−1.day^−1(n=13), 3) vehicle (0.05% ascorbic acid; n=12).
Delapril was dissolved in drinking water at the final concentration of 0.043 mg/ml. The delapril solutions were prepared, freshly every third day and their concentration adjusted to body weight every 15 days to obtain an average dose of 6 mg.kg^−1.day^−1.
CHF 1024 was administered continuously for four weeks through osmotic minipumps implanted subcutaneously behind the neck.
Concentrated solutions of CHF 1024 were dissolved in 10% ascorbic acid in distilled water at a final concentration of 40 mM (mean delivery rate 0.33 mg.kg^−1.day^−1).
At week 4 of treatment, the rats were placed in individual metabolic cages to collect 24-hour urine for measuring catecholamine excretion. […] Only rats with mean infarct size >12%, histologically determined in 6-10 serial cross-sections as percentage of LV area, were analyzed. The numbers of animals analyzed in each experimental group were 6 (vehicle), 6 (delapril alone), 8 (delapril and CHF 1024) and 6 non-operated.

α2-adrenergic receptors = assay: α2-adrenergic activity in isolated neuronally-stimulated rat vas deferens; conditions: for IC50: isolated neuronally-stimulated rat vas deferens, read-out: IC50, 50% inhibition of the electrically induced contraction
[2] = target: peripheral DA2 dopaminergic receptors (Oryctolagus cuniculus, UniProt G1T1Q0); assay: Peripheral DA2 dopaminergic activity in electrically stimulated rabbit rectococcygeus muscle; conditions: for IC50: read-out: IC50, 50% inhibition of the electrically induced contraction
Excerpt: The activity of CHF 1024 and CHF 1035 on peripheral DA2 dopaminergic receptors has been tested in the electrically stimulated rabbit rectococcygeus muscle.

α2 adrenergic receptors [3] = assay: α2 adrenergic receptor binding, [3H]-rauwolscine, rat cerebral cortex; conditions: for IC50: rat cerebral cortex, read-out: IC50, 50% inhibition of [3H]-rauwolscine specific binding
Protocol: The affinity of CHF 1024 and CHF 1035 for α2, adrenergic receptors was tested on human platelets and on rat cerebral cortex.
(§1) The antagonist [^3H]-rauwolscine was used as marker of the receptor, being its binding reversible, saturable and specific.
Values are expressed as IC50=molar concentration of drug required for 50% inhibition of [^3H]-rauwolscine specific binding.

dogs = conditions: approximately 10 μg/kg per minute continuous intravenous infusion; cited from earlier work
dopamine receptor = conditions: cited from earlier work
anesthetized rats = assay: In vivo cardiovascular effects in anesthetized rats; set-up: species or system rat; conditions: for mean arterial pressure, change from basal value: 0.69 µg/kg/min i.v.
Protocol: Male albino rats (Sprague Dawley, 350-400 g) were anesthetized by sodium pentobarbital (60 mg/kg) and maintained by i.v. infusion (6 mg/h). The trachea was cannulated to facilitate spontaneous respiration and body temperature was maintained at 37 C. Homoiothermic Blanket Control System (Harvard, England).
The right femoral artery was cannulated for arterial blood pressure measurement and left jugular vein or duodenum were cannulated for drug administration. Mean arterial pressure and heart rate were continuously monitored by pressure transducer and medium gain amplifier triggered by the ECG signal, respectively. […]
CHF 1035 was administered intraduodenally (1 mg/kg).
The response to […] was determined in the absence and in the presence of the selective β2-adrenoceptor antagonist ICI 118.551 (0.2 mg/kg i.v.) and the selective DA2-dopaminergic antagonist domperidone (0 3 mg/kg i.v.) both alone and in combination. The antagonists were administered 10 min before the i.d. drug administration.

[4] = target: T1, peripheral DA2 dopaminergic receptors (Bos taurus, UniProt P20288); assay: Peripheral DA2 dopaminergic binding test, [3H](-)sulpiride, bovine adrenal cortex
T1 construct: peripheral DA2 dopaminergic receptors was tested on bovine adrenal cortex; from tissue; host or cells: bovine adrenal cortex
Protocol: The affinity of CHF 1024 for peripheral DA2 dopaminergic receptors was tested on bovine adrenal cortex evaluating its effect on the interaction of [^3H](-)sulpiride with the specific binding sites of this system.

α2 adrenergic receptors [5] = target: T2, α2 adrenergic receptors (Homo sapiens, UniProt P08913); assay: α2 adrenergic receptor binding, [3H]-rauwolscine, human platelets
T2 construct: from tissue; host or cells: human platelets
T2 sequence (P08913 1-465): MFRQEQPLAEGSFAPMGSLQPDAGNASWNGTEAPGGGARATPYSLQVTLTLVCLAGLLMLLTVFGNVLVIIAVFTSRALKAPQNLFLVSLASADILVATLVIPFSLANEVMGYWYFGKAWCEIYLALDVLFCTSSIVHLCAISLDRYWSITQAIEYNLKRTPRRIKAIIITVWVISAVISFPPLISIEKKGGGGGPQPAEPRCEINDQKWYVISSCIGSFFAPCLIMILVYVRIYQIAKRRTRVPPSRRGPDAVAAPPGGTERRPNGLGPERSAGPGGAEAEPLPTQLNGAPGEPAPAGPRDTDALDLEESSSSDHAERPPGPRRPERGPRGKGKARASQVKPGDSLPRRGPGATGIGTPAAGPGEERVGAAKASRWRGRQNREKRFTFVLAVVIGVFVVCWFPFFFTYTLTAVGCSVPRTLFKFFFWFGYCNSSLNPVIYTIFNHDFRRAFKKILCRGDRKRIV
Excerpt: as §1

Sequence of peripheral DA2 dopaminergic receptors (Oryctolagus cuniculus, UniProt G1T1Q0) (G1T1Q0 1-443): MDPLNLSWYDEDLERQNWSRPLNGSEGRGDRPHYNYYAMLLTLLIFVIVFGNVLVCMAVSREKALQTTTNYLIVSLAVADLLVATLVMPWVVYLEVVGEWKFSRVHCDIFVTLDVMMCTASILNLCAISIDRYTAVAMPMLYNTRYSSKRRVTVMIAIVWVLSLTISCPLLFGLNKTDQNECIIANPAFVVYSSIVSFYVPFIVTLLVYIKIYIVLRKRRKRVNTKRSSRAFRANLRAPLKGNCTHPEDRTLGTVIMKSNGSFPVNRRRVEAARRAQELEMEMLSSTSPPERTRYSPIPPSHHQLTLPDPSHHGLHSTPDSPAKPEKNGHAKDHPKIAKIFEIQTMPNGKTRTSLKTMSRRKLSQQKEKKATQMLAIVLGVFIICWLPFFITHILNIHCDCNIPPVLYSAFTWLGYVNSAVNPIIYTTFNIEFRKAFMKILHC
T1 sequence (P20288 whole entry): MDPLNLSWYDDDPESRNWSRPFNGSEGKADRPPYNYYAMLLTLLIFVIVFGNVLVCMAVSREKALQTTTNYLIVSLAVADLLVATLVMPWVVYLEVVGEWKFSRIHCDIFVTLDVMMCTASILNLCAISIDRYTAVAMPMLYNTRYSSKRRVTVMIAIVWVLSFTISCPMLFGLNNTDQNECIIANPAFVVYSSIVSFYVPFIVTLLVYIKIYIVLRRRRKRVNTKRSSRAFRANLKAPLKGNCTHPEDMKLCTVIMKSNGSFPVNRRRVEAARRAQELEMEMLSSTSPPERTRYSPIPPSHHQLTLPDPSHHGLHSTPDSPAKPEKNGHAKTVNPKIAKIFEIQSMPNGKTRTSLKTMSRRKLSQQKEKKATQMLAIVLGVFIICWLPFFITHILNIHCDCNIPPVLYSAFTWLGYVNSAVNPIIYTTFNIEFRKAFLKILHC

**Q.** For `CCOC(=O)[C@H](CCc1ccccc1)N[C@@H](C)C(=O)N(CC(=O)O)C1Cc2ccccc2C1` [delapril, reference compound], which urine norepinephrine excretion ([1]; delapril alone 6 mg.kg^−1.day^−1, week 4, 24-hour urine) is on record?
**A.** unaffected

**Q.** With `NCCc1ccc(O)c(O)c1` [DOPAMINE, dopamine, reference compound] as the compound, how does the IC50 (α2-adrenergic receptors) read?
**A.** 4910 nM

**Q.** And the IC50 [2]?
**A.** 99.3 nM

**Q.** And the IC50 (α2 adrenergic receptors [3])?
**A.** 4060 nM

**Q.** For `Br.CNC1CCc2c(ccc(O)c2O)C1` (stereo not drawn) [5,6-dihydroxy-2-methylaminotetralin hydrobromide], which coronary blood flow (dogs) is on record?
**A.** substantial increase

**Q.** With `CNC1CCc2c(ccc(O)c2O)C1` (stereo not drawn) [CHF 1024, 5,6-dihydroxy-2-methylaminotetralin] as the compound, how does the “dopamine receptor agonist activity in relaxing splenic artery strips” value (dopamine receptor) read?
**A.** inactive

**Q.** And the IC50 (α2-adrenergic receptors)?
**A.** 270 nM

**Q.** What about the “more potent than dopamine” value (α2-adrenergic receptors; rat vas deferens) of the same compound?
**A.** about 20 times

**Q.** What about the “urine norepinephrine excretion, reduced with respect to the vehicle group” value ([1]; CHF 1024 0.33 mg.kg^−1.day^−1 s.c. minipump added to delapril 6 mg.kg^−1.day^−1, week 4) of the same compound?
**A.** 40%

**Q.** And the “mean arterial pressure, change from basal value” (shortened to “mean arterial pressure, change”) (anesthetized rats; 5 min after infusion start)?
**A.** −24.0

**Q.** What about the “mean arterial pressure, change” value (anesthetized rats; 5 min after infusion stop) of the same compound?
**A.** −12.7

**Q.** And the “mean arterial pressure, change” value (anesthetized rats; 30 min after infusion start)?
**A.** −25.7

**Q.** What about the “mean arterial pressure, change” value (anesthetized rats; 30 min after infusion stop) of the same compound?
**A.** −6.7

**Q.** And the “effect on mean arterial pressure” value (anesthetized rats; intravenous administration, persists after infusion discontinuation)?
**A.** dose-dependent reduction

**Q.** And the heart rate (anesthetized rats; intravenous infusion, in spite of marked hypotension)?
**A.** no increase

**Q.** What about the “effect in presence of selective DA2-antagonist domperidone” value [2] of the same compound?
**A.** competitively antagonized

**Q.** And the “more potent than dopamine” value [2]?
**A.** approximately 3 times

**Q.** What about the IC50 [2] of the same compound?
**A.** 37.3 nM

**Q.** And the IC50 [4]?
**A.** 21 nM

**Q.** What about the “affinity for DA2 receptors higher than dopamine” value ([4]; bovine adrenal cortex) of the same compound?
**A.** 11 times

**Q.** What about the “affinity higher than dopamine” value (α2 adrenergic receptors [3]; cerebral cortex) of the same compound?
**A.** 15 times

**Q.** And the IC50 (α2 adrenergic receptors [3])?
**A.** 262 nM

**Q.** And the IC50 (α2 adrenergic receptors [5]; human platelets, read-out: IC50, 50% inhibition of [3H]-rauwolscine specific binding)?
**A.** 339 nM

**Q.** And the “affinity higher than dopamine” value (α2 adrenergic receptors [5]; platelets)?
**A.** 9 times
